Measurements taken from PubChem BioAssay (NCI).
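GI50 marks 50% less growth. TGI: total growth inhibition.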

What was measured:
Test in all cases: DTP human tumour cell line panel, 384-well format
M14 melanoma = test system: M14 melanoma
UO-31 renal = test system: UO-31 renal
NCI-H322M lung = test system: NCI-H322M lung
SW-620 colon = test system: SW-620 colon
MDA-MB-468 breast = test system: MDA-MB-468 breast
SF-295 CNS = test system: SF-295 CNS
OVCAR-8 ovarian = test system: OVCAR-8 ovarian
KM12 colon = test system: KM12 colon
UACC-257 melanoma = test system: UACC-257 melanoma
COLO 205 colon = test system: COLO 205 colon
NCI-H460 NSCLC = test system: NCI-H460 NSCLC
MCF7 breast = test system: MCF7 breast
K-562 leukemia = test system: K-562 leukemia
SNB-19 CNS = test system: SNB-19 CNS
SK-OV-3 ovarian = test system: SK-OV-3 ovarian
OVCAR-3 ovarian = test system: OVCAR-3 ovarian
BT-549 breast = test system: BT-549 breast
HT29 colon = test system: HT29 colon
NCI-H23 lung = test system: NCI-H23 lung
SK-MEL-2 melanoma = test system: SK-MEL-2 melanoma
T-47D breast = test system: T-47D breast
SF-268 CNS = test system: SF-268 CNS
SN12C renal = test system: SN12C renal
SK-MEL-28 melanoma = test system: SK-MEL-28 melanoma
SF-539 CNS = test system: SF-539 CNS
HOP-62 NSCLC = test system: HOP-62 NSCLC
MDA-MB-435 melanoma = test system: MDA-MB-435 melanoma
A498 renal = test system: A498 renal
786-0 renal = test system: 786-0 renal
TK-10 renal = test system: TK-10 renal
MALME-3M melanoma = test system: MALME-3M melanoma
PC-3 prostate = test system: PC-3 prostate
RXF 393 renal = test system: RXF 393 renal
ACHN renal = test system: ACHN renal
SK-MEL-5 melanoma = test system: SK-MEL-5 melanoma
HCT-15 colon = test system: HCT-15 colon
MDA-MB-231 breast = test system: MDA-MB-231 breast
UACC-62 melanoma = test system: UACC-62 melanoma
IGROV1 ovarian = test system: IGROV1 ovarian
HS 578T breast = test system: HS 578T breast
EKVX NSCLC = test system: EKVX NSCLC
OVCAR-4 ovarian = test system: OVCAR-4 ovarian
NCI-H522 lung = test system: NCI-H522 lung
HCT-116 colon = test system: HCT-116 colon
OVCAR-5 ovarian = test system: OVCAR-5 ovarian
NCI-H226 lung = test system: NCI-H226 lung
A549 NSCLC = test system: A549 NSCLC
DU-145 prostate = test system: DU-145 prostate
MOLT-4 leukemia = test system: MOLT-4 leukemia
SR leukemia = test system: SR leukemia
HOP-92 NSCLC = test system: HOP-92 NSCLC
SNB-75 CNS = test system: SNB-75 CNS
CAKI-1 renal = test system: CAKI-1 renal
HL-60(TB) leukemia = test system: HL-60(TB) leukemia

CN(C)C1CCN(C(=O)c2ccc(NC(=O)Nc3ccc(-c4nc(N5CCOCC5)nc(N5CCOCC5)n4)cc3)cc2)CC1
GI50 (M14 melanoma): 0.128 µM | TGI (M14 melanoma): 5.25 µM | GI50 (UO-31 renal): 2.22 µM | TGI (UO-31 renal): 7.29 µM | GI50 (NCI-H322M lung): 0.0195 µM | TGI (NCI-H322M lung): 0.149 µM | GI50 (SW-620 colon): 0.0752 µM | TGI (SW-620 colon): 10.2 µM | GI50 (MDA-MB-468 breast): < 0.01 µM | TGI (MDA-MB-468 breast): 0.0224 µM | GI50 (SF-295 CNS): 0.174 µM | TGI (SF-295 CNS): 0.607 µM | GI50 (OVCAR-8 ovarian): 0.139 µM | TGI (OVCAR-8 ovarian): 2.94 µM | GI50 (KM12 colon): 0.0277 µM | TGI (KM12 colon): 10.3 µM | GI50 (UACC-257 melanoma): 0.0519 µM | TGI (UACC-257 melanoma): 0.338 µM | GI50 (COLO 205 colon): 0.0267 µM | TGI (COLO 205 colon): 0.137 µM | GI50 (NCI-H460 NSCLC): 0.0186 µM | TGI (NCI-H460 NSCLC): 1.34 µM | GI50 (MCF7 breast): < 0.01 µM | TGI (MCF7 breast): 0.176 µM | GI50 (K-562 leukemia): 0.0422 µM | TGI (K-562 leukemia): 1.82 µM | GI50 (SNB-19 CNS): 0.383 µM | TGI (SNB-19 CNS): 14.4 µM | GI50 (SK-OV-3 ovarian): < 0.01 µM | TGI (SK-OV-3 ovarian): 0.0398 µM | GI50 (OVCAR-3 ovarian): 0.0121 µM | TGI (OVCAR-3 ovarian): 0.323 µM | GI50 (BT-549 breast): 0.0176 µM | TGI (BT-549 breast): 0.13 µM | GI50 (HT29 colon): 0.0286 µM | TGI (HT29 colon): 1.47 µM | GI50 (NCI-H23 lung): 0.0508 µM | TGI (NCI-H23 lung): 1.12 µM | GI50 (SK-MEL-2 melanoma): 0.0373 µM | TGI (SK-MEL-2 melanoma): 0.268 µM | GI50 (T-47D breast): < 0.01 µM | TGI (T-47D breast): 0.0114 µM | GI50 (SF-268 CNS): 0.0363 µM | TGI (SF-268 CNS): 1.76 µM | GI50 (SN12C renal): 0.0303 µM | TGI (SN12C renal): 12.4 µM | GI50 (SK-MEL-28 melanoma): 0.0428 µM | TGI (SK-MEL-28 melanoma): 1.15 µM | GI50 (SF-539 CNS): < 0.01 µM | TGI (SF-539 CNS): 0.113 µM | GI50 (HOP-62 NSCLC): 0.0521 µM | TGI (HOP-62 NSCLC): 0.351 µM | GI50 (MDA-MB-435 melanoma): 0.0235 µM | TGI (MDA-MB-435 melanoma): 0.352 µM | GI50 (A498 renal): 0.188 µM | TGI (A498 renal): 0.943 µM | GI50 ([…]-0 renal): 0.29 µM | TGI (786-0 renal): 2.03 µM | GI50 (TK-10 renal): 0.348 µM | TGI (TK-10 renal): 1.69 µM | GI50 (MALME-3M melanoma): 0.0189 µM | TGI (MALME-3M melanoma): 0.0735 µM | GI50 (PC-3 prostate): 0.0188 µM | TGI (PC-3 prostate): 0.765 µM | GI50 (RXF 393 renal): 0.0252 µM | TGI (RXF 393 renal): 0.203 µM | GI50 (ACHN renal): 0.479 µM | TGI (ACHN renal): 5.56 µM | GI50 (SK-MEL-5 melanoma): 0.125 µM | TGI (SK-MEL-5 melanoma): 0.39 µM | GI50 (HCT-15 colon): 3.26 µM | TGI (HCT-15 colon): > 100 µM | GI50 (MDA-MB-231 breast): 0.0117 µM | TGI (MDA-MB-231 breast): 15 µM | GI50 (UACC-62 melanoma): 0.0249 µM | TGI (UACC-62 melanoma): 0.142 µM | GI50 (IGROV1 ovarian): < 0.01 µM | TGI (IGROV1 ovarian): 0.0431 µM | GI50 (HS 578T breast): < 0.01 µM | TGI (HS 578T breast): 0.0455 µM | GI50 (EKVX NSCLC): 0.0406 µM | TGI (EKVX NSCLC): 0.828 µM | GI50 (OVCAR-4 ovarian): < 0.01 µM | TGI (OVCAR-4 ovarian): 0.0509 µM | GI50 (NCI-H522 lung): 0.0244 µM | TGI (NCI-H522 lung): 1.61 µM | GI50 (HCT-116 colon): 0.0319 µM | TGI (HCT-116 colon): 1.97 µM | GI50 (OVCAR-5 ovarian): 0.0509 µM | TGI (OVCAR-5 ovarian): 12.1 µM | GI50 (NCI-H226 lung): 0.0865 µM | TGI (NCI-H226 lung): 0.441 µM | GI50 (A549 NSCLC): 0.0223 µM | TGI (A549 NSCLC): 0.546 µM | GI50 (DU-145 prostate): 0.015 µM | TGI (DU-145 prostate): 1.58 µM | GI50 (MOLT-4 leukemia): 0.0107 µM | TGI (MOLT-4 leukemia): 0.0454 µM | GI50 (SR leukemia): < 0.01 µM | TGI (SR leukemia): 0.0264 µM | GI50 (HOP-92 NSCLC): 0.0211 µM | TGI (HOP-92 NSCLC): 0.118 µM | GI50 (SNB-75 CNS): < 0.01 µM | TGI (SNB-75 CNS): 0.0339 µM | GI50 (CAKI-1 renal): 0.278 µM | TGI (CAKI-1 renal): 1.23 µM | GI50 (HL-60(TB) leukemia): 0.0554 µM | TGI (HL-60(TB) leukemia): 0.227 µM
